Experimental data taken from US20260248087A1, “GENERATING DOUBLED HAPLOID PLANTS” (Syngenta Crop Protection AG, priority 2023, published 2026).

Key:
[1] = tested on: GST27; assay: GST27 induction, metcamifen pre-treatment of isolated embryos; assay type: cell-based, maize; conditions: for GST27 before doubling, Mean: embryo pre-treatment 10 mg/L in MS media; for GST27 Mean: embryo pre-treatment in MS media
Procedure: (§1) For the examples below, GST27 was used as a quick indicator for treatment effectiveness.
Embryos from maize ears were isolated and treated with metcamifen prior to a colchicine doubling treatment. Isolated embryos plated on filter paper were pre-treated with a formulation of metcamifen at concentrations of 0, 10, 100, and 1000 mg/L in Murashige and Skoog Medium (MS media) for a duration of 1, 3, 5, or 7 days at 6° C. with 150 PAR light. GST27 induction was measured after pre-treatment at each time point and again at the end of the colchicine treatment. Resulting embryos were germinated, and the percentage of embryos successfully transferred to soil (percent potted rate) was measured as an indicator of plant health and pre-treatment effectiveness. GST27 was induced by metcamifen at a medium level ([…] of TSP), but higher than ear pre-treatment that was less than 10 ng/ml of TSP.
The addition of 10% DMSO in the metcamifen formulation at 10, 100, and 1000 mg/L in the MS media was tested to potentially increase the uptake of metcamifen. This test was done at temperatures of both 6° C. and 20° C. over a course of 0 to 4 days. There was no increase in GST27 expression with the 10% DMSO addition at either temperature.
Embryo pre-treatment with metcamifen at 10 mg/L was tested at temperatures of 6° C. and 20° C. for 1 day to measure the impact of temperature on embryo health.

[2] = tested on: GST27; assay: GST27 induction, metcamifen co-treatment of isolated embryos during colchicine doubling; assay type: cell-based, maize; conditions: for GST27 Induction Mean: co-treatment with colchicine
Procedure: as §1
Isolated embryos were treated with metcamifen during colchicine doubling (also referred to as co-treatment). Metcamifen was added in the colchicine co-treatment media (a.k.a. doubling media) as a formulation at concentrations of 0, 200, 400, 800, 1200 mg/L. Metcamifen concentrations tested for a 24-hour duration ranged from 0-1000 mg/L. Metcamifen concentrations tested for a 48-hour condition ranged from 0-1200 mg/L. Three to four genotypes representing two heterotic groups were tested.
Initial testing on three genotypes included co-treatment of metcamifen and colchicine in Gelzan media at 28° C. with 150 PAR light at concentrations of 0, 200, and 1000 mg/L to identify a range of working concentrations. The 200 and 1000 mg/L concentrations induced similar GST27 expression levels for both the 24- and 48-hour durations. The resulting induction was higher (400 ng/mg TSP GST27) than recorded with pre-treatments of ears or isolated embryos. […] Metcamifen co-treatment of isolated embryos optimization continued by testing levels of 0, 400, 600, and 800 mg/L for 24 and 48 hours with 4 genotypes across 2 heterotic groups. GST induction (ng/mg TSP) was measured after metcamifen co-treatment. […] The percent potted rate after metcamifen co-treatment was similar for both time durations when sorted by genotype or heterotic group.

[3] = tested on: doubled haploid embryos; assay: Potting rate and root growth, metcamifen post-treatment during germination; assay type: in vivo, maize; conditions: for Potting Rate Mean: post-treatment in germination media (2.5 g/L Gelzan)
Procedure: As used herein, the term “potted rate” or “potting rate” refers to the percent of germinated embryos successfully transferred to soil from total treated haploid embryos. The “potted rate” is used as an indication of plant health in monitoring the success of recovery and growth after treatment of haploids. As used herein, the term “transplant rate” refers to the survival of healthy plants after embryos were germinated and transferred to soil.
Doubled haploid embryos were treated with metcamifen during germination. Metcamifen was tested in the germination media at 0, 5, and 10 mg/L after colchicine treatment completion for 24 or 48 hours. The germination media comprised Gelzan at a concentration of 3.5 g/L. Four genotypes were tested representing two heterotic groups. […] The percent potting rate was not increased as result of these post-treatments. […] This led to a looping of the roots. A reduction in Gelzan concentration from 3.5 g/L to 2.5 g/L was tested (comparison data not presented here). The experiments were then carried out with 2.5 g/L Gelzan for metcamifen post-treatments while the control (0 metcamifen) contained 3.5 g/L Gelzan. Metcamifen was tested as 0, 5, 10 and 20 mg/L after colchicine treatment completion for 24 and 48 hours. The reduction in Gelzan of the metcamifen post-treatments led to a higher percent potting rate (see Table 5).

CNC(=O)Nc1ccc(S(=O)(=O)NC(=O)c2ccccc2OC)cc1 [Metcamifen, metcamifen]
GST27 induction in comparison to the control and other doses ([1]; 10 mg/L, all time points, 6° C. and 20° C., DMSO test): best GST27 induction | GST27 expression with 10% DMSO addition ([1]; 10, 100, 1000 mg/L in MS media, 6° C. and 20° C., 0 to 4 days): no increase | GST27 before doubling, Mean ([1]; 1 day, 6° C.): 8.83 ng/mg TSP | GST27 before doubling, Mean ([1]; 1 day, 20° C.): 140 ng/mg TSP | GST27 Mean ([1]; 10 mg/L, 1 day, 6° C.): 9 ng/mg TSP | GST27 Mean ([1]; 10 mg/L, 3 days, 6° C.): 14 ng/mg TSP | GST27 Mean ([1]; 10 mg/L, 5 days, 6° C.): 37 ng/mg TSP | GST27 Mean ([1]; 10 mg/L, 7 days, 6° C.): 75 ng/mg TSP | GST27 Mean ([1]; 100 mg/L, 1 day, 6° C.): 21 ng/mg TSP | GST27 Mean ([1]; 100 mg/L, 3 days, 6° C.): 30 ng/mg TSP | GST27 Mean ([1]; 100 mg/L, 5 days, 6° C.): 61 ng/mg TSP | GST27 Mean ([1]; 100 mg/L, 7 days, 6° C.): 92 ng/mg TSP | GST27 Mean ([1]; 1000 mg/L, 1 day, 6° C.): 11 ng/mg TSP | GST27 Mean ([1]; 1000 mg/L, 3 days, 6° C.): 71 ng/mg TSP | GST27 Mean ([1]; 1000 mg/L, 5 days, 6° C.): 60 ng/mg TSP | GST27 Mean ([1]; 1000 mg/L, 7 days, 6° C.): 108 ng/mg TSP | GST27 induced by metcamifen (medium level) ([1]; embryo pre-treatment, 10-1000 mg/L, 1-7 days, 6° C.): < 100 ng/ml of TSP | GST27 induction among 0, 400, 600, 800 mg/L ([2]; 800 mg/L, 48-hour co-treatment, 4 genotypes): highest induction | GST27 Induction Mean ([2]; 200 mg/L, 24 hours): 383.25 ng/mg TSP | GST27 Induction Mean ([2]; 400 mg/L, 24 hours): 396.13 ng/mg TSP | GST27 Induction Mean ([2]; 400 mg/L, 48 hours): 609.50 ng/mg TSP | GST27 Induction Mean ([2]; 800 mg/L, 24 hours): 489.38 ng/mg TSP | GST27 Induction Mean ([2]; 800 mg/L, 48 hours): 666.50 ng/mg TSP | GST27 Induction Mean ([2]; 1200 mg/L, 48 hours): 796.63 ng/mg TSP | GST27 induction ([2]; initial testing, 200 and 1000 mg/L, 24- and 48-hour, Gelzan media, 28° C., three genotypes): 400 ng/mg TSP | percent potting rate ([3]; post-treatment 5 and 10 mg/L, 3.5 g/L Gelzan, 24 or 48 hours): not increased | Potting Rate Mean ([3]; 5 mg/L, Duration 24 hours): 69% | Potting Rate Mean ([3]; 5 mg/L, Duration 48 hours): 18% | Potting Rate Mean ([3]; 10 mg/L, Duration 24 hours): 62% | Potting Rate Mean ([3]; 10 mg/L, Duration 48 hours): 24% | Potting Rate Mean ([3]; 20 mg/L, Duration 24 hours): 51% | Potting Rate Mean ([3]; 20 mg/L, Duration 48 hours): 23%
